According to patent US12077503B2, “Substituted cyclic amides and their use as herbicides” (FMC CORPORATION, priority 2015, dated 2024):

Assays:
Type in all cases: in vivo
[1] = tested on: giant foxtail (Setaria faberi); experiment: Test G Post-Emergence Protocol; conditions: Setaria faberi, post-emergence, 312 h, read-out: Foxtail, Giant damage rating; for pest or weed control at 15.625 g/ha: 15.625 g ai/ha, evaluated after 13 days (100=total damage to plant; 0=no damage to plant); for pest or weed control at 62.5 g/ha: 62.5 g ai/ha; for pest or weed control at 62.5 g/ha / pest or weed control at 250 g/ha: evaluated after 13 days, 100=total damage to plant, 0=no damage to plant; for pest or weed control at 250 g/ha: 250 g ai/ha
In short: (§1)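 A glasshouse post-emergence test: 8-day-old plants sprayed at 15.625, 62.5 or 250 g/ha, then grown at 24/16 °C day/night with 14 h light and 65% humidity. Damage rated 13 days later, 0–100.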

[2] = tested on: ivy-leaved morning glory (Ipomoea hederacea); experiment: Test G Post-Emergence Protocol; conditions: Ipomoea, post-emergence, 312 h, read-out: Morningglory, Ivy-leaved damage rating; for pest or weed control at 15.625 g/ha: 15.625 g ai/ha, evaluated after 13 days (100=total damage to plant; 0=no damage to plant); for pest or weed control at 62.5 g/ha: 62.5 g ai/ha; for pest or weed control at 62.5 g/ha / pest or weed control at 250 g/ha: evaluated after 13 days, 100=total damage to plant, 0=no damage to plant; for pest or weed control at 250 g/ha: 250 g ai/ha
In short: as §1

[3] = tested on: barnyardgrass (Echinochloa crus-galli); experiment: Test G Post-Emergence Protocol; conditions: Echinochloa crus-galli, post-emergence, 312 h, read-out: Barnyardgrass damage rating; for pest or weed control at 15.625 g/ha: 15.625 g ai/ha, evaluated after 13 days (100=total damage to plant; 0=no damage to plant); for pest or weed control at 62.5 g/ha: 62.5 g ai/ha; for pest or weed control at 62.5 g/ha / pest or weed control at 250 g/ha: evaluated after 13 days, 100=total damage to plant, 0=no damage to plant; for pest or weed control at 250 g/ha: 250 g ai/ha
In short: as §1

corn (Zea mays) [4] = experiment: Test G Post-Emergence Protocol; conditions: Zea mays, post-emergence, 312 h, read-out: Corn damage rating; for plant injury at 15.625 g/ha: 15.625 g ai/ha, evaluated after 13 days (100=total damage to plant; 0=no damage to plant); for plant injury at 62.5 g/ha: 62.5 g ai/ha; for plant injury at 62.5 g/ha / plant injury at 250 g/ha: evaluated after 13 days, 100=total damage to plant, 0=no damage to plant; for plant injury at 250 g/ha: 250 g ai/ha
In short: as §1

[5] = tested on: velvetleaf (Abutilon theophrasti); experiment: Test G Post-Emergence Protocol; conditions: Abutilon theophrasti, post-emergence, 312 h, read-out: Velvetleaf damage rating; for pest or weed control at 15.625 g/ha: 15.625 g ai/ha, evaluated after 13 days (100=total damage to plant; 0=no damage to plant); for pest or weed control at 62.5 g/ha: 62.5 g ai/ha; for pest or weed control at 62.5 g/ha / pest or weed control at 250 g/ha: evaluated after 13 days, 100=total damage to plant, 0=no damage to plant; for pest or weed control at 250 g/ha: 250 g ai/ha
In short: as §1

[6] = tested on: redroot pigweed (Amaranthus retroflexus); experiment: Test G Post-Emergence Protocol; conditions: Amaranthus retroflexus, post-emergence, 312 h, read-out: Pigweed, Redroot damage rating; for pest or weed control at 15.625 g/ha: 15.625 g ai/ha, evaluated after 13 days (100=total damage to plant; 0=no damage to plant); for pest or weed control at 62.5 g/ha: 62.5 g ai/ha; for pest or weed control at 62.5 g/ha / pest or weed control at 250 g/ha: evaluated after 13 days, 100=total damage to plant, 0=no damage to plant; for pest or weed control at 250 g/ha: 250 g ai/ha
In short: as §1

[7] = tested on: giant foxtail (Setaria faberi); experiment: Test G Pre-Emergence Protocol; conditions: Setaria faberi, pre-emergence, 312 h, evaluated after 13 days; for pest or weed control at 15.625 g/ha: 15.625 g ai/ha; for pest or weed control at 15.625 g/ha / pest or weed control at 250 g/ha: read-out: Foxtail, Giant damage rating (100=total damage to plant; 0=no damage to plant); for pest or weed control at 62.5 g/ha: 62.5 g ai/ha, 100=total damage to plant, 0=no damage to plant, read-out: Foxtail, Giant damage rating; for pest or weed control at 250 g/ha: 250 g ai/ha
In short: (§2)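 Pre-emergence spray, 15.625/62.5/250 g/ha, vehicle acetone:water 50:50 + 0.5% Tween 20, applied 1 d after sowing. Glasshouse 24/16° C, 14 h light, 65% RH, watered twice daily. Visual damage rating at 13 d, 0–100 scale.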

[8] = tested on: ivy-leaved morning glory (Ipomoea hederacea); experiment: Test G Pre-Emergence Protocol; conditions: Ipomoea, pre-emergence, 312 h, evaluated after 13 days; for pest or weed control at 15.625 g/ha: 15.625 g ai/ha; for pest or weed control at 15.625 g/ha / pest or weed control at 250 g/ha: read-out: Morningglory, Ivy-leaved damage rating (100=total damage to plant; 0=no damage to plant); for pest or weed control at 62.5 g/ha: 62.5 g ai/ha, 100=total damage to plant, 0=no damage to plant, read-out: Morningglory, Ivy-leaved damage rating; for pest or weed control at 250 g/ha: 250 g ai/ha
In short: as §2

[9] = tested on: barnyardgrass (Echinochloa crus-galli); experiment: Test G Pre-Emergence Protocol; conditions: Echinochloa crus-galli, pre-emergence, 312 h, evaluated after 13 days; for pest or weed control at 15.625 g/ha: 15.625 g ai/ha; for pest or weed control at 15.625 g/ha / pest or weed control at 250 g/ha: read-out: Barnyardgrass damage rating (100=total damage to plant; 0=no damage to plant); for pest or weed control at 62.5 g/ha: 62.5 g ai/ha, 100=total damage to plant, 0=no damage to plant, read-out: Barnyardgrass damage rating; for pest or weed control at 250 g/ha: 250 g ai/ha
In short: as §2

corn (Zea mays) [10] = experiment: Test G Pre-Emergence Protocol; conditions: Zea mays, pre-emergence, 312 h, evaluated after 13 days; for plant injury at 15.625 g/ha: 15.625 g ai/ha; for plant injury at 15.625 g/ha / plant injury at 250 g/ha: read-out: Corn damage rating (100=total damage to plant; 0=no damage to plant); for plant injury at 62.5 g/ha: 62.5 g ai/ha, 100=total damage to plant, 0=no damage to plant, read-out: Corn damage rating; for plant injury at 250 g/ha: 250 g ai/ha
In short: as §2

[11] = tested on: velvetleaf (Abutilon theophrasti); experiment: Test G Pre-Emergence Protocol; conditions: Abutilon theophrasti, pre-emergence, 312 h, evaluated after 13 days; for pest or weed control at 15.625 g/ha: 15.625 g ai/ha; for pest or weed control at 15.625 g/ha / pest or weed control at 250 g/ha: read-out: Velvetleaf damage rating (100=total damage to plant; 0=no damage to plant); for pest or weed control at 62.5 g/ha: 62.5 g ai/ha, 100=total damage to plant, 0=no damage to plant, read-out: Velvetleaf damage rating; for pest or weed control at 250 g/ha: 250 g ai/ha
In short: as §2

[12] = tested on: redroot pigweed (Amaranthus retroflexus); experiment: Test G Pre-Emergence Protocol; conditions: Amaranthus retroflexus, pre-emergence, 312 h, evaluated after 13 days; for pest or weed control at 15.625 g/ha: 15.625 g ai/ha; for pest or weed control at 15.625 g/ha / pest or weed control at 250 g/ha: read-out: Pigweed, Redroot damage rating (100=total damage to plant; 0=no damage to plant); for pest or weed control at 62.5 g/ha: 62.5 g ai/ha, 100=total damage to plant, 0=no damage to plant, read-out: Pigweed, Redroot damage rating; for pest or weed control at 250 g/ha: 250 g ai/ha
In short: as §2

| SMILES | pest or weed control at 15.625 g/ha [1] [%] | pest or weed control at 62.5 g/ha [1] [%] | pest or weed control at 250 g/ha [1] [%] | pest or weed control at 15.625 g/ha [2] [%] | pest or weed control at 62.5 g/ha [2] [%] | pest or weed control at 250 g/ha [2] [%] | pest or weed control at 15.625 g/ha [3] [%] | pest or weed control at 62.5 g/ha [3] [%] | pest or weed control at 250 g/ha [3] [%] | plant injury at 15.625 g/ha (corn (Zea mays) [4]) [%] | plant injury at 62.5 g/ha (corn (Zea mays) [4]) [%] | plant injury at 250 g/ha (corn (Zea mays) [4]) [%] | pest or weed control at 15.625 g/ha [5] [%] | pest or weed control at 62.5 g/ha [5] [%] | pest or weed control at 250 g/ha [5] [%] | pest or weed control at 15.625 g/ha [6] [%] | pest or weed control at 62.5 g/ha [6] [%] | pest or weed control at 250 g/ha [6] [%] | pest or weed control at 15.625 g/ha [7] [%] | pest or weed control at 62.5 g/ha [7] [%] | also measured |
| --- | --- | --- | --- | --- | --- | --- | --- | --- | --- | --- | --- | --- | --- | --- | --- | --- | --- | --- | --- | --- | --- |
| COc1cc(F)cc(C2CN(C)C(=O)C2C(=O)Nc2cccc(F)c2F)c1 (stereo not drawn) [Compound 1699] | 80 | 80 | 80 | 10 | 30 | 70 | 60 | 80 | 90 | 0 | 30 | 70 | 0 | 0 | 30 | 0 | 0 | 30 | 80 | 90 | pest or weed control at 250 g/ha [7]: 90%; pest or weed control at 15.625 g/ha [8]: 0%; pest or weed control at 62.5 g/ha [8]: 10%; pest or weed control at 250 g/ha [8]: 70%; pest or weed control at 15.625 g/ha [9]: 60%; pest or weed control at 62.5 g/ha [9]: 80%; pest or weed control at 250 g/ha [9]: 90%; plant injury at 15.625 g/ha (corn (Zea mays) [10]): 0%; plant injury at 62.5 g/ha (corn (Zea mays) [10]): 30%; plant injury at 250 g/ha (corn (Zea mays) [10]): 70%; pest or weed control at 15.625 g/ha [11]: 0%; pest or weed control at 62.5 g/ha [11]: 0%; pest or weed control at 250 g/ha [11]: 0%; pest or weed control at 15.625 g/ha [12]: 0%; pest or weed control at 62.5 g/ha [12]: 0%; pest or weed control at 250 g/ha [12]: 0% |
| CN1C[C@@H](c2ccc(C(F)(F)F)cc2)[C@H](C(=O)Nc2ccc(F)nn2)C1=O (racemic) [Compound 1655] | 0 | 30 | 30 | 0 | 0 | 0 | 0 | 20 | 20 | 0 | 0 | 0 | 0 | 0 | 0 | 0 | 0 | 40 | 0 | 0 | pest or weed control at 250 g/ha [7]: 30%; pest or weed control at 15.625 g/ha [8]: 0%; pest or weed control at 62.5 g/ha [8]: 0%; pest or weed control at 250 g/ha [8]: 0%; pest or weed control at 15.625 g/ha [9]: 0%; pest or weed control at 62.5 g/ha [9]: 0%; pest or weed control at 250 g/ha [9]: 0%; plant injury at 15.625 g/ha (corn (Zea mays) [10]): 0%; plant injury at 62.5 g/ha (corn (Zea mays) [10]): 0%; plant injury at 250 g/ha (corn (Zea mays) [10]): 0%; pest or weed control at 15.625 g/ha [11]: 0%; pest or weed control at 62.5 g/ha [11]: 0%; pest or weed control at 250 g/ha [11]: 0%; pest or weed control at 15.625 g/ha [12]: 0%; pest or weed control at 62.5 g/ha [12]: 0%; pest or weed control at 250 g/ha [12]: 0% |
| CN1C[C@H](c2ccc(C(F)(F)F)c(C(F)(F)F)c2)[C@@H](C(=O)Nc2ccccc2S(C)(=O)=O)C1=O (racemic) [Compound 1799] | 20 | 70 | 70 | 10 | 60 | 30 | 0 | 60 | 70 | 10 | 60 | 70 | 0 | 20 | 10 | 0 | 60 | 70 | 50 | 90 | pest or weed control at 250 g/ha [7]: 90%; pest or weed control at 15.625 g/ha [8]: 0%; pest or weed control at 62.5 g/ha [8]: 0%; pest or weed control at 250 g/ha [8]: 0%; pest or weed control at 15.625 g/ha [9]: 10%; pest or weed control at 62.5 g/ha [9]: 70%; pest or weed control at 250 g/ha [9]: 70%; plant injury at 15.625 g/ha (corn (Zea mays) [10]): 0%; plant injury at 62.5 g/ha (corn (Zea mays) [10]): 70%; plant injury at 250 g/ha (corn (Zea mays) [10]): 80%; pest or weed control at 15.625 g/ha [11]: 0%; pest or weed control at 62.5 g/ha [11]: 0%; pest or weed control at 250 g/ha [11]: 20%; pest or weed control at 15.625 g/ha [12]: 0%; pest or weed control at 62.5 g/ha [12]: 10%; pest or weed control at 250 g/ha [12]: 40% |
